Results as given in patent US20260184712A1, “Heterocyclic Compounds as ENT Inhibitors and Compounds for Use in the Treatment of Cancers” (iTeos Belgium SA, priority 2022, published 2026).

Key:
human ENT1 = target: T1, human ENT1 (Homo sapiens, UniProt Q99808); experiment: ENT1 binding assay (competition with Sahenta-DY647 on JAR cells); conditions: competition with SAHENTA-DY647 binding; IC50 categorized; read-out: Binding Assay IC50
T1 construct: JAR cells expressing ENT1 were purchased from ATCC; host or cells: JAR cells
T1 sequence (Q99808 1-456): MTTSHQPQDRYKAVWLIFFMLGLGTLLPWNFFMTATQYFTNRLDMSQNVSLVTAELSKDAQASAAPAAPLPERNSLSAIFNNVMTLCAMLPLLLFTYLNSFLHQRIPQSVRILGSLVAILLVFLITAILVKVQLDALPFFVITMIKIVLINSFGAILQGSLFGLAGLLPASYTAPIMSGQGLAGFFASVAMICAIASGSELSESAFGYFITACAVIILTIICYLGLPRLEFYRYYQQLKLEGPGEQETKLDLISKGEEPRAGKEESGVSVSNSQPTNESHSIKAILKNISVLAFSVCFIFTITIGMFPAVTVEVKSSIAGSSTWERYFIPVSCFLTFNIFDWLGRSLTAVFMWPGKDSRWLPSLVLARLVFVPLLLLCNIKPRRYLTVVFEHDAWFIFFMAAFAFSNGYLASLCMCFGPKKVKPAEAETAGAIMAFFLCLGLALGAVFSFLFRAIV
In short: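 Whole-cell competition on JAR cells (native ENT1): 50,000 cells pre-incubated 30 min at 4 °C with compound in HBSS/10 mM Hepes/0.1% BSA, then 100 nM Sahenta-DY647 added for 30 min at 4 °C. After washing, fluorescence (Ex 630/Em 670 nm) read; IC50 from sigmoidal fit, averaged as pIC50.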

[1] = system: stimulated primary human T cells; experiment: T cell proliferation assay, Condition A (X-VIVO15); type: cell-based; conditions: Homo sapiens, T-cell, 96 h; Condition A: X-VIVO15 medium; anti-CD3/anti-CD28 beads, ATP, 4 days; CFSE-lo T cells
Experimental: The goal of this study was to determine the potency of ENT1 inhibitors by measuring the rescued proliferation of stimulated primary human T cells incubated in the presence of 100 uM Adenosine triphosphate (ATP), in baseline conditions (condition A) or in the presence of various proteins known to bind small molecules (condition B).
Venous blood from healthy volunteers, all of whom signed an informed consent approved by the Ethics Committee (FOR—UIC—BV-050-01-01 ICF_HBS_HD Version 5.0), was obtained by ImmuneHealth (Centre Hospitalier Universitaire Tivoli, La Louviere, Belgium). Mononuclear cells were collected by density gradient centrifugation, using SepMate-50 tubes (StemCell Technologies, Grenoble, France) and Lymphoprep (Stemcell Technologies) according to the manufacturer's instructions. CD3+ T cells were isolated by immunomagnetic negative selection, using the EasySep Human T Cell Isolation Kit (StemCell Technologies) as per the manufacturer's instructions. CD3+ T cells were stored in heat inactivated FBS (hiFBS; Gibco, ThermoFisher Scientific, Merelbeke, Belgium) and 10% DMSO in liquid nitrogen.
Purified human CD3+ T cells were thawed and washed once with RPMI1640 medium, UltraGlutamine (Lonza, Verviers, Belgium) containing 10% hiFBS. Cells were resuspended in PBS containing 10% hiFBS at 1×10^7 cells/ml. One volume of cells was combined with a matching volume of 2 μM CFSE solution in PBS, mixed well by pipetting, and incubated at room temperature for 5 minutes under rotation and protected from light. Excess CFSE was quenched by addition of PBS containing 10% hiFBS, and the cells were centrifuged (300×rcf, 7 minutes) and resuspended in X-VIVO15. Cells were again centrifuged and resuspended in X-VIVO15 for counting.
Cells were resuspended at 1.6×10^6 cells/mL in X-VIVO15 medium (Condition A) or X-VIVO15 medium containing 4% (v/v) HSA (Sigma-Aldrich, Diegem, Belgium) and 0.2% (v/v) ai-Acid Glycoprotein (Sigma-Aldrich, Diegem, Belgium) (Condition B).
[…] of cell suspension (2×10^4 cells) was added to wells of sterile flat-bottom 384-well plates. Cells were activated by adding […] of anti-CD3 anti-CD28 coated microbeads (Dynabeads human T-activator CD3/CD28; Life Technologies, Paisley, UK) suspended in X-VIVO15 medium or X-VIVO15 medium containing 4% (v/v) HSA and 0.2% (v/v) ai-Acid Glycoprotein at a ratio of one microbead per two cells. Serial dilutions of the ENT1 inhibitors were conducted in X-VIVO15 medium and […] of the diluent was added to the wells. Cells were mixed by pipetting up and down and pre-incubated for 30 minutes in a 37° C. humidified tissue culture incubator with 5% CO2. After pre-incubation, cells were cultured in the presence or absence of ATP (Sigma-Aldrich) at a final concentration of […]. The final well volume was 50 μl in all cases. Experiments were performed in biological duplicates. Cells were mixed by pipetting up and down and incubated for 4 days in a 37° C. humidified tissue culture incubator with 5% CO2.
Samples were run on a BD LSR Fortessa FACS machine (BD FACSDiva Software v9.0.1). Data were analyzed using FlowJo (BD, v10.7.1). T cell proliferation was determined by measuring the frequency of ‘CFSE^lo’ (i.e. CFSE-diluted).
T cell proliferation data were analyzed using FlowJo software (Version 10.6.2). Dead cells and cellular debris were excluded on the basis of forward and side scatter profile and singlet cells were selected for further analysis.
T cell proliferation was determined based on the percent CFSE^lo total T cells for each condition. The data were plotted on the y-axis against log molar (M) concentration of ENT1 inhibitors on the x-axis in GraphPad Prism (version 9.0.0). IC50 and IC90 values were generated with the ‘log(agonist) vs. response—Find ECanything(F))’ function with F constrained to 50 or 90, respectively. pICF values were generated by taking the −logECF values.

[2] = system: stimulated primary human T cells; experiment: T cell proliferation assay, Condition B (X-VIVO15, 2% HSA and 0.1% AAG); type: cell-based; conditions: Homo sapiens, T-cell, 96 h; Condition B: X-VIVO15 medium containing HSA and α1-Acid Glycoprotein; anti-CD3/anti-CD28 beads, ATP, 4 days; CFSE-lo T cells
In short: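 CFSE-labelled CD3+ T cells from healthy donors (2×10^4/well) in X-VIVO15 with 2% HSA and 0.1% AAG were stimulated with anti-CD3/CD28 beads. After 30 min pre-incubation with inhibitor, ATP was added and cells were cultured 4 days at 37° C. Flow cytometry gave % CFSE^lo cells, with IC50/IC90 and pICF from curve fits.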

O=[N+]([O-])c1ccc(CSc2ncnc3c2ncn3[C@@H]2O[C@H](CF)[C@@H](O)[C@H]2O)cc1 [Compound 159]
IC50 (human ENT1): 1 to 20 nM | IC50 [1]: 1 to 20 nM | IC50 [2]: > 500 nM

C[C@H]1O[C@@H](n2c(NC3CCCC3)nc3c(OCc4ccc(C#N)c(F)c4)ncnc32)[C@H](O)[C@@H]1O [Compound 89]
IC50 (human ENT1): < 1 nM | IC50 [1]: < 1 nM | IC50 [2]: 20 to 500 nM

CCNc1nc2c(OCc3ccc([N+](=O)[O-])cc3)ncnc2n1[C@@H]1O[C@H](C)[C@@H](O)[C@H]1O [Compound 20]
IC50 (human ENT1): 1 to 20 nM | IC50 [1]: < 1 nM | IC50 [2]: 20 to 500 nM

C[C@H]1O[C@@H](n2c(NC3CCC(F)(F)C3)nc3c(OCc4ccc([N+](=O)[O-])cc4)ncnc32)[C@H](O)[C@@H]1O (stereo partly drawn) [Compound 9]
IC50 (human ENT1): < 1 nM | IC50 [1]: < 1 nM | IC50 [2]: 1 to 20 nM

C[C@H]1O[C@@H](n2c(NC3CCCC3)nc3c(OCc4ccc(OC(F)F)nc4)ncnc32)[C@H](O)[C@@H]1O [Compound 14]
IC50 (human ENT1): < 1 nM | IC50 [1]: < 1 nM | IC50 [2]: 20 to 500 nM

Cc1cc(COc2ncnc3c2ncn3[C@@H]2O[C@H](C)[C@@H](O)[C@H]2O)ccc1[N+](=O)[O-] [Compound 193]
IC50 (human ENT1): 20 to 500 nM | IC50 [1]: 20 to 500 nM | IC50 [2]: > 500 nM

C[C@H]1O[C@@H](n2c(N)nc3c(N4CCc5ccc([N+](=O)[O-])cc5C4)ncnc32)[C@H](O)[C@@H]1O [Compound 145]
IC50 (human ENT1): < 1 nM | IC50 [1]: 1 to 20 nM | IC50 [2]: 20 to 500 nM

C[C@H]1O[C@@H](n2c(NC3CCCC3)nc3c(OCc4ccccc4)ncnc32)[C@H](O)[C@@H]1O [Compound 5]
IC50 (human ENT1): 1 to 20 nM | IC50 [1]: 1 to 20 nM | IC50 [2]: 20 to 500 nM

C[C@H]1O[C@@H](n2c(NC3CCS(=O)(=O)CC3)nc3c(OCc4ccc(OC(F)F)cc4)ncnc32)[C@H](O)[C@@H]1O [Compound 55]
IC50 (human ENT1): < 1 nM | IC50 [1]: < 1 nM | IC50 [2]: 1 to 20 nM

C[C@H]1O[C@@H](n2c(NC3CC(F)(F)C3)nc3c(OCc4ccc([N+](=O)[O-])cc4)ncnc32)[C@H](O)[C@@H]1O [Compound 47]
IC50 (human ENT1): 1 to 20 nM | IC50 [1]: < 1 nM | IC50 [2]: 20 to 500 nM

CC(C)Nc1nc2c(OCc3ccc(C#N)cc3)ncnc2n1[C@@H]1O[C@H](C)[C@@H](O)[C@H]1O [Compound 40]
IC50 (human ENT1): 1 to 20 nM | IC50 [1]: < 1 nM | IC50 [2]: 20 to 500 nM

C[C@H]1O[C@@H](n2c(NC3CCS(=O)(=O)CC3)nc3c(OCc4ccc(C#N)cc4)ncnc32)[C@H](O)[C@@H]1O [Compound 54]
IC50 (human ENT1): < 1 nM | IC50 [1]: < 1 nM | IC50 [2]: 20 to 500 nM

C[C@H]1O[C@@H](n2c(NCCCO)nc3c(OCc4ccc([N+](=O)[O-])cc4)ncnc32)[C@H](O)[C@@H]1O [Compound 22]
IC50 (human ENT1): 1 to 20 nM | IC50 [1]: 1 to 20 nM | IC50 [2]: 20 to 500 nM

C[C@H]1O[C@@H](n2c(NCC3CCOCC3)nc3c(OCc4ccc(OC(F)F)cc4)ncnc32)[C@H](O)[C@@H]1O [Compound 113]
IC50 (human ENT1): 1 to 20 nM | IC50 [1]: < 1 nM | IC50 [2]: 20 to 500 nM

C[C@H]1O[C@@H](n2cnc3c(OCc4ccc(OC(F)(F)F)cc4)ncnc32)[C@H](O)[C@@H]1O [Compound 180]
IC50 (human ENT1): 20 to 500 nM | IC50 [1]: 1 to 20 nM | IC50 [2]: > 500 nM

OC[C@H]1O[C@@H](n2cnc3c(OCc4ccc(OC(F)(F)F)cc4)nc(Cl)nc32)[C@H](O)[C@@H]1O [Compound 156]
IC50 (human ENT1): 1 to 20 nM | IC50 [1]: 1 to 20 nM | IC50 [2]: 20 to 500 nM

COC(=O)[C@H]1O[C@@H](n2cnc3c(SCc4ccc([N+](=O)[O-])cc4)ncnc32)[C@H](O)[C@@H]1O [Compound 152]
IC50 (human ENT1): 1 to 20 nM | IC50 [1]: > 500 nM | IC50 [2]: > 500 nM

CC(C)Nc1nc2c(OCc3ccc([N+](=O)[O-])cc3)ncnc2n1[C@@H]1O[C@H](C)[C@@H](O)[C@H]1O [Compound 25]
IC50 (human ENT1): < 1 nM | IC50 [1]: < 1 nM | IC50 [2]: 1 to 20 nM

C[C@H]1O[C@@H](n2c(NC3CCCC3)nc3c(N4CCc5ccc(C#N)cc5C4)ncnc32)[C@H](O)[C@@H]1O [Compound 153]
IC50 (human ENT1): 1 to 20 nM | IC50 [1]: < 1 nM | IC50 [2]: 20 to 500 nM

OCCOC[C@H]1O[C@@H](n2cnc3c(OCc4ccc(OC(F)F)cc4)nc(Cl)nc32)[C@H](O)[C@@H]1O [Compound 162]
IC50 (human ENT1): 1 to 20 nM | IC50 [1]: 1 to 20 nM | IC50 [2]: 20 to 500 nM
